Laboratory results as given in patent US9273067B2, “Pyrazolopyrimidine macrocycles as inhibitors of human immunodeficiency virus replication” (BRISTOL-MYERS SQUIBB COMPANY, priority 2014, dated 2016).

System: NL-RLuc virus (recombinant HIV NL4-3 with Renilla Luciferase) in MT-2 cells
Assay: Inhibition of HIV replication (NL-RLuc virus in MT-2 cells, luciferase readout)
Assay type: cell-based, human immunodeficiency virus (HIV)
Settings: MT2, 120 h, NL-RLuc virus infecting MT-2 cells, 5 days of incubation, 10% FBS, luciferase quantitation; at least 2 experiments
Source text: Inhibition of HIV Replication:
A recombinant NL-RLuc proviral clone was constructed in which a section of the nef gene from NL4-3 was replaced with the Renilla Luciferase gene. This virus is fully infectious and can undergo multiple cycles of replication in cell culture. In addition, the luciferous reporter provides a simple and easy method for quantitating the extent of virus growth and consequently, the antiviral activity of test compounds. The plasmid pNLRLuc contains the proviral NL-Rluc DNA cloned into pUC 18 at the PvuII site. The NL-RLuc virus was prepared by transfection of 293T cells with the plasmid pNLRLuc. Transfections were performed using the LipofectAMINE PLUS kit from Invitrogen (Carlsbad, Calif.) according to the manufacturer and the virus generated was titered in MT-2 cells. For susceptibility analyses, the titrated virus was used to infect MT-2 cells in the presence of compound, and after 5 days of incubation, cells were processed and quantitated for virus growth by the amount of expressed luciferase. Assay media was RPMI 1640 supplemented with 10% heat inactivated fetal bovine serum (FBS), 100 units/ml penicillin G/100 units/ml streptomycin, 10 mM HEPES buffer pH 7.55 and 2 mM L-glutamine. The results from at least 2 experiments were used to calculate the EC50 values. Luciferase was quantitated using the Dual Luciferase kit from Promega (Madison, Wis.). Susceptibility of viruses to compounds was determined by incubation in the presence of serial dilutions of the compound. The 50% effective concentration (EC50) was calculated by using the exponential form of the median effect equation where (Fa)=1/[1+(ED50/drug conc.)^m] (Johnson V A, Byington R T. Infectivity Assay. In Techniques in HIV Research. ed. Aldovini A, Walker B D. 71-76. New York: Stockton Press. 1990).

Compound | EC50
Cc1nc2cc3nn2c(c1[C@H](OC(C)(C)C)C(=O)O)N1CCC(C)(CC1)OCCCCCc1ccccc1COC3 [Example 57, (2S)-2-(tert-Butoxy)-2-{4,25-dimethyl-11,24-dioxa-1,5,7,8-tetraazapentacyclo[23.2.2.1^6,^9.0^2,^7.0^13,^18]triaconta-2,4,6(30),8,13(18),14,16-heptaen-3-yl}acetic acid] | 34 nM
Cc1nc2cc3nn2c(c1[C@H](OC(C)(C)C)C(=O)O)N1CCC(C)(CC1)OCCCCOC1(CCCCC1)c1cn(nn1)C3 [Example 8, (2S)-2-(tert-Butoxy)-2-{4′,22′-dimethyl-16′,21′-dioxa-1′,5′,7′,8′,11′,12′,13′-heptaazaspiro[cyclohexane-1,15′-pentacyclo[20.2.2.1^6,^9.1^11,^14.0^2,^7]octacosane]-2′,4′,6′(28′),8′,12′,14′(27′)-hexaen-3′-yl}acetic acid] | 111 nM
Cc1nc2cc3nn2c(c1[C@H](OC(C)(C)C)C(=O)O)N1CCC(C)(CC1)OCCCCCCc1ccccc1COC3 [Example 58, (2S)-2-(tert-Butoxy)-2-{4,26-dimethyl-11,25-dioxa-1,5,7,8-tetraazapentacyclo[24.2.2.1^6,^9.0^2,^7.0^13,^18]hentriaconta-2,4,6(31),8,13(18),14,16-heptaen-3-yl}acetic acid] | 62 nM
Cc1nc2cc3nn2c(c1[C@H](OC(C)(C)C)C(=O)O)N1CCC(C)(CC1)OCCCC[C@H](C)Oc1c(F)cc(F)cc1CCC3 [Example 41, (2S)-2-(tert-Butoxy)-2-[(20S)-15,17-difluoro-4,20,26-trimethyl-19,25-dioxa-1,5,7,8-tetraazapentacyclo[24.2.2.1^6,^9.0^2,^7.0^13,^18]hentriaconta-2,4,6(31),8,13(18),14,16-heptaen-3-yl]acetic acid] | 10 nM
Cc1ccc2c(c1)O[C@@H](C)CCCCOC1(C)CCN(CC1)c1c([C@H](OC(C)(C)C)C(=O)O)c(C)nc3cc(nn13)CN(C1CC1)C2 [Example 64, (2S)-2-(tert-Butoxy)-2-[(20S)-11-cyclopropyl-4,16,20,26-tetramethyl-19,25-dioxa-1,5,7,8,11-pentaazapentacyclo[24.2.2.1^6,^9.0^2,^7.0^13,^18]hentriaconta-2,4,6(31),8,13(18),14,16-heptaen-3-yl]acetic acid] | 12 nM
Cc1nc2cc3nn2c(c1[C@H](OC(C)(C)C)C(=O)O)N1CCC(C)(CC1)OCCCC[C@H](C)Oc1cc2ccccc2cc1COC3 [Example 53, (2S)-2-(tert-butoxy)-2-[(24S)-4,24,30-trimethyl-11,23,29-trioxa-1,5,7,8-tetraazahexacyclo[28.2.2.1^6,^9.0^2,^7.0^13,^22.0^15,^20]pentatriaconta-2,4,6(35),8,13,15,17,19,21-nonaen-3-yl]acetic acid] | 2 nM
Cc1nc2cc3nn2c(c1[C@H](OC(C)(C)C)C(=O)O)N1CCC(C)(CC1)OCCCCc1ccccc1COC3 [Example 24, (2S)-2-(tert-Butoxy)-2-{4,24-dimethyl-11,23-dioxa-1,5,7,8-tetraazapentacyclo[22.2.2.1^6,^9.0^2,^7.0^13,^18]nonacosa-2,4,6(29),8,13(18),14,16-heptaen-3-yl}acetic acid] | 3 nM
Cc1nc2cc3nn2c(c1[C@H](OC(C)(C)C)C(=O)O)N1CCC(C)(CC1)OCCCC[C@@H](COCc1ccccc1)OC3 [Example 48, (2S)-2-[(12S)-12-[(benzyloxy)methyl]-4,18-dimethyl-11,17-dioxa-1,5,7,8-tetraazatetracyclo[16.2.2.1^6,^9.0^2,^7]tricosa-2,4,6(23),8-tetraen-3-yl]-2-(tert-butoxy)acetic acid] | 111 nM
Cc1cc(CN2CCCCOC3(C)CCN(CC3)c3c([C@H](OC(C)(C)C)C(=O)O)c(C)nc4cc(nn34)CNC(=O)C2=O)ccc1F [Example 19, (2S)-2-(tert-Butoxy)-2-{14-[(4-fluoro-3-methylphenyl)methyl]-4,20-dimethyl-12,13-dioxo-19-oxa-1,5,7,8,11,14-hexaazatetracyclo[18.2.2.1^6,^9.0^2,^7]pentacosa-2,4,6(25),8-tetraen-3-yl}acetic acid] | 34 nM
Cc1nc2cc3nn2c(c1[C@H](OC(C)(C)C)C(=O)O)N1CCC(C)(CC1)OCCCC[C@H](C)Oc1ccc(F)cc1COC3 [Example 28, (2S)-2-(tert-Butoxy)-2-[(20S)-15-fluoro-4,20,26-trimethyl-11,19,25-trioxa-1,5,7,8-tetraazapentacyclo[24.2.2.1^6,^9.0^2,^7.0^13,^18]hentriaconta-2,4,6(31),8,13,15,17-heptaen-3-yl]acetic acid] | 5 nM
Cc1nc2cc3nn2c(c1[C@H](OC(C)(C)C)C(=O)O)N1CCC(C)(CC1)OCCCc1cc(F)ccc1COC3 [Example 67, (2S)-2-(tert-Butoxy)-2-{16-fluoro-4,23-dimethyl-11,22-dioxa-1,5,7,8tetraazapentacyclo[21.2.2.1^6,^9.0^2,^7.0^13,^18]octacosa-2,4,6(28),8,13(18),14,16-heptaen-3-yl}acetic acid] | 5 nM
Cc1nc2cc3nn2c(c1[C@H](OC(C)(C)C)C(=O)O)N1CCC(C)(CC1)OCCCCc1cc(F)ccc1COC3 [Example 66, (2S)-2-(tert-Butoxy)-2-{16-fluoro-4,24-dimethyl-11,23-dioxa-1,5,7,8-tetraazapentacyclo[22.2.2.1^6,^9.0^2,^7.0^13,^18]nonacosa-2,4,6(29),8,13(18),14,16-heptaen-3-yl}acetic acid] | 4 nM
Cc1nc2cc3nn2c(c1[C@H](OC(C)(C)C)C(=O)O)N1CCC(C)(CC1)OCCCCOC(CC(C)C)c1cn(nn1)C3 (stereo partly drawn) [Example 12, (2S)-2-(tert-Butoxy)-2-[4,22-dimethyl-15-(2-methylpropyl)-16,21-dioxa-1,5,7,8,11,12,13-heptaazapentacyclo[20.2.2.1^6,^9.1^11,^14.0^2,^7]octacosa-2,4,6(28),8,12,14(27)-hexaen-3-yl]acetic acid] | 136 nM
Cc1nc2cc3nn2c(c1[C@H](OC(C)(C)C)C(=O)O)N1CCC(C)(CC1)OCCCC[C@H](C)Oc1ccc(F)c(F)c1CCC3 [Example 42, (2S)-2-(tert-Butoxy)-2-[(20S)-14,15-difluoro-4,20,26-trimethyl-19,25-dioxa-1,5,7,8-tetraazapentacyclo[24.2.2.1^6,^9.0^2,^7.0^13,^18]hentriaconta-2,4,6(31),8,13(18),14,16-heptaen-3-yl]acetic acid] | 2 nM
Cc1nc2cc3nn2c(c1[C@H](OC(C)(C)C)C(=O)O)N1CCC(C)(CC1)OCCCC[C@H](C)Oc1c(ccc2ccccc12)COC3 [Example 61, (2S)-2-(tert-butoxy)-2-[(24S)-4,24,30-trimethyl-11,23,29-trioxa-1,5,7,8-tetraazahexacyclo[28.2.2.1^6,^9.0^2,^7.0^13,^22.0^16,^21]pentatriaconta-2,4,6(35),8,13(22),14,16(21),17,19-nonaen-3-yl]acetic acid] | 5 nM
Cc1ccc2c(c1)COCc1cc3nc(C)c([C@H](OC(C)(C)C)C(=O)O)c(n3n1)N1CCC(C)(CC1)OCCCC[C@H](C)O2 [Example 30, (2S)-2-(tert-Butoxy)-2-[(20S)-4,15,20,26-tetramethyl-11,19,25-trioxa-1,5,7,8-tetraazapentacyclo[24.2.2.1^6,^9.0^2,^7.0^13,^18]hentriaconta-2,4,6(31),8,13,15,17-heptaen-3-yl]acetic] | 64 nM

Same assay, conditions: NL-RLuc virus infecting MT-2 cells, 5 days of incubation, 10% FBS, luciferase quantitation; at least 2 experiments; read-out: EC50

Compound | EC50
Cc1nc2cc3nn2c(c1[C@H](OC(C)(C)C)C(=O)O)N1CCC(C)(CC1)OCC=CCOc1ccccc1CC(=O)NC3 [Example 16, (2S)-2-(tert-Butoxy)-2-[4,26-dimethyl-12-oxo-20,25-dioxa-1,5,7,8,11-pentaazapentacyclo[24.2.2.1^6,^9.1^2,^7.0^14,^19]hentriaconta-2,4,6(31),8,14(19),15,17,22-octaen-3-yl]acetic acid] | 21 nM

Same assay, conditions: {}

Compound | EC50
CCCC1CCCCOC2(C)CCN(CC2)c2c([C@H](OC(C)(C)C)C(=O)O)c(C)nc3cc(nn23)COCc2ccc(C)cc2O1 (stereo partly drawn) [Example 45, (2S)-2-(tert-butoxy)-2-{4,16,26-trimethyl-20-propyl-11,19,25-trioxa-1,5,7,8-tetraazapentacyclo[24.2.2.1^6,^9.0^2,^7.0^13,^18]hentriaconta-2,4,6(31),8,13(18),14,16-heptane-3-yl}acetic acid] | 35 nM
Cc1ccc(C2CCCCOC3(C)CCN(CC3)c3c([C@H](OC(C)(C)C)C(=O)O)c(C)nc4cc(nn34)CO2)cc1 (stereo partly drawn) [Example 47, (2S)-2-(tert-butoxy)-2-[4,18-dimethyl-12-(4-methylphenyl)-11,17-dioxa-1,5,7,8-tetraazatetracyclo[16.2.2.1^6,^9.0^2,^7]tricosa-2,4,6(23),8-tetraen-3-yl]acetic acid] | 1590 nM
CCCC1CCCCOC2(C)CCN(CC2)c2c([C@H](OC(C)(C)C)C(=O)O)c(C)nc3cc(nn23)COCc2ccc(C)cc2O1 (stereo partly drawn) [Example 44, (2S)-2-(tert-Butoxy)-2-{4,16,26-trimethyl-20-propyl-11,19,25-trioxa-1,5,7,8-tetraazapentacyclo[24.2.2.1^6,^9.0^2,^7.0^13,^18]hentriaconta-2,4,6(31),8,13(18),14,16-heptaen-3-yl}acetic acid] | 5 nM
